Consider 2 compounds from patent publication US20250281649A1, “PROBE DIRECTED TO ENZYME ALDH1A3 AND USE THEREOF IN THE DIAGNOSIS OF GLIOBLASTOMA” (Universita' Degli Studi Del Piemonte Orientale "A. Avogadro", priority 2021, published 2025).

Experiment [1] has as its system 4T1 mammary carcinoma (triple negative ALDH1A subfamily). The experiment in a line: Confocal fluorescence of probes in cell lines. It counts as cell-based. The settings on record: 4T1, 10 μM to 100 nM. The procedure:
(§1) All 3 enzymes belonging to the subfamily 1A of aldehyde dehydrogenases were expressed recombinantly in bacterial cells and purified to homogeneity. The pure enzymes were then used to study the interaction with the molecules according to the invention, using various in vitro biochemical assays. In particular, the affinity for the isoenzymes of the selected molecules was measured through the use of a TECAN SPARK and a TECAN SUNRISE. Fluorescence assays were performed in the presence of different protein concentrations and the activity assays were conducted by measuring NAD^+ consumption. According to their specific activity, all molecules were characterized by values of KD, KM, Ki and IC50, showing a net selectivity in specifically binding the ALDH1A3 enzyme. The probes having curcumin and recognizing the ALDH1A3 enzyme were tested in a cellular context, using four different cell lines classified by the presence or absence of the isoform studied: human glioblastoma line (U87MG, ALDH1A3 positive), embryonic kidney cell line (HEK293T, ALDH1A2 positive), human astrocyte line (hAstro, ALDH1A1 positive) and a breast cancer line (4T1, ALDHIA negative). […] The binding ability of the probes to these cell lines was also verified and confirmed by flow cytometry.
(§2) Human U87MG glioblastoma were used as ALDH1A3+ cell lines, HEK293T as ALDH1A2+ cell line, human foetal astrocytes (hASTRO) as ALDH1A1+ cell line and 4T1 mammary carcinoma as triple negative ALDHIA subfamily (checked with Western Blot analysis and RT-PCR). All these cell lines were incubated with Probe 14 and 13 at different concentrations (from 10 μM to 100 nM). At all these concentrations we observed a selectivity of probe 14 and 13 on U87MG cells after 2 h, that appeared to be cytoplasmic, no signal has been verified in HEK293T, hASTRO and 4T1 cell lines. Moreover, we incubated the two probes with cells and analyzed with FACS and we observed a significant positivity in U87MG cells, too.

A further experiment deals with HEK293T (ALDH1A2+). The experiment can be described thus: Confocal fluorescence of probes in cell lines. The settings on record: 10 μM to 100 nM. The class given is cell-based. The procedure: as §1, §2
For experiment [2], the system named is human foetal astrocytes (hASTRO, ALDH1A1+). The experiment can be described thus: Confocal fluorescence of probes in cell lines. The class given is cell-based. The settings on record: 10 μM to 100 nM. The procedure:
as §1, §2

The next experiment addresses T1, ALDH1A3 (Homo sapiens, UniProt P47895).
T1 construct: His-tag; made in house; host or cells: bacterial cells
T1 sequence (P47895 1-512): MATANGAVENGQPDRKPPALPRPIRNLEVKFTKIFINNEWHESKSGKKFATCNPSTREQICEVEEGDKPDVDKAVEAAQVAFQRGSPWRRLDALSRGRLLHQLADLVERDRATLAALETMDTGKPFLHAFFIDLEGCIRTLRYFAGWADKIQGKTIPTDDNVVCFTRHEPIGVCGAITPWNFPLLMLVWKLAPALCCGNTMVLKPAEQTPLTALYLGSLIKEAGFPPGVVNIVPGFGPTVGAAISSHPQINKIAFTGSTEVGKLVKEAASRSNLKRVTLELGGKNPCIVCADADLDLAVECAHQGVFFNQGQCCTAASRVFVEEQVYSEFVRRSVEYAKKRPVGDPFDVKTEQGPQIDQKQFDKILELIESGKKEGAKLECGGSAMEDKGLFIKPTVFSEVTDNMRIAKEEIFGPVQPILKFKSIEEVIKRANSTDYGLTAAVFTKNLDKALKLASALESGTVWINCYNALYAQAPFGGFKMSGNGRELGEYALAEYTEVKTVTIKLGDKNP
The experiment can be described thus: Ki evaluation, competitive inhibition vs acetaldehyde, NADH formation. The class given is biochemical. The settings on record: competitive vs acetaldehyde 1-20 mM. Here is the method: A common protocol to express and purify all three members of the ALDHIA subfamily has been optimized. Briefly, induced cells, collected by centrifugation, were re-suspended in an appropriate volume of lysis buffer (50 mM Na2HPO4, 300 mM NaCl, 1 mM β-mercaptoethanol, 20 mM imidazole, pH 7.5) added of benzonase nuclease (250 U/μL) and Protease inhibitor cocktail from SIGMA. After ultracentrifugation, the clarified sample was purified by a His-tag affinity chromatography followed by size-exclusion chromatography, using an AKTA FPLC system, at 4° C. To evaluate the purity and homogeneity of the protein, after each purification step, eluted d fractions were analyzed by SDS-PAGE and the protein quantification was always determined by Bradford protein assay.
Ki evaluation: on a Tecan—SUNRISE, probe 13 was tested as a possible competitive inhibitor, at a variable concentration (200, 100, 50, 10, 1 and 0 μM). In the same plate, different the acetaldehyde was tested at concentrations (1, 2.5, 5, 10, 15 and 20 mM) to describe the competitive mechanism. The recipe of the buffer reaction was the same as described before. The analysis was conducted measuring the NADH formation, that has a specific absorbance wavelength (340 nm). The test was performed in triplicate only with the ALDH1A3.

Another experiment relates to GL261 cells. The experiment can be described thus: Penetration into GL261 cells in vitro. The class given is cell-based, mouse. From the text:
We used in vitro and in vivo cells from a mouse high grade glioma cell line, GL261, Briefly, twenty-four 2- to 3-month-old female C57BIC mice were stereotactically implanted under deep general anesthesia (isoflurane supplemented with nitrous oxide) with 1×10^5 GL261 glioblastoma cells. The cells were stereotactically inoculated through a burr hole by a Hamilton syringe into the left striatum (coordinates: 1 mm anteroposterior and 1 mm lateral from bregma, at a depth of 3 mm). All experimental procedures were conducted in accordance with the European Communities Council Directive of 24 Nov. 1986 (86/609 EEC), Recommendation 18/06/2007, Dir. 2010/63/UE, and the Italian law for care and use of experimental animals (DL116/92) and were approved by the Italian Ministry of Health (prot. E669C.15) and the Bioethical Committee of the University of Turin. All animals were housed under a 12-hour light-dark cycle in an environmentally controlled room. All experiments were designed to minimize the numbers of animals used and their discomfort. In each experiment, animals with tumors were allocated to two groups and i.p. injected with probe 14 or probe 13. All drugs were administered intraperitoneally, and treatments were started days 6 after tumor implantation. […] Quantitative and phenotypic evaluations were made on images acquired with a Leica TCS SP5 confocal microscope.

One may read the Ki as a dissociation constant, usually derived from enzyme kinetics or from competition with a known ligand. Read a high Ki as a looser hold on the target. As to `COc1cc(/C=C/C(=O)/C=C(O)/C=C/c2ccc(OCc3cn(CCOc4ccc(C=O)cc4)nn3)c(OC)c2)ccc1O` [Compound 13], the “fluorescence signal in cells” value (in experiment [1]; with HEK293T (ALDH1A2+); in experiment [2]) was “no signal” throughout. The same compound returned a Ki at ALDH1A3 of 0.9 µM.

Take `CCOC(=O)Cn1cc(COc2ccc(/C=C/C(O)=C/C(=O)/C=C/c3ccc(O)c(OC)c3)cc2OC)nn1` [Compound 14]: the “fluorescence signal in cells” value (in experiment [1]; with HEK293T (ALDH1A2+); in experiment [2]) was “no signal” in each case. Besides, the “penetration into cells in vitro” value with GL261 cells is “penetrates GL261 cells in vitro”.
